Source: ChEMBL document CHEMBL1133820, “Total synthesis and antifungal activity of 9-methoxystrobilurin L as the originally proposed 1,4-benzodioxan structure” (2001)
Active and inactive are the calls of the source. The calls are words filed in the database; no cut-off is given here.

Key:
Candida albicans [1] = test: Antifungal activity against Candida albicans determined as diameter of inhibition zone at a concentration of 0.1 ug/disk; Not effective; assay type: functional, organism-based
Candida albicans [2] = test: Antifungal activity against Candida albicans determined as diameter of inhibition zone at a concentration of 1 ug/disk; Not effective; assay type: functional, organism-based
Fusarium solani [3] = test: Antifungal activity against Fusarium solani determined as diameter of inhibition zone at a concentration of 0.1 ug/disk; Not effective; assay type: functional, organism-based
Fusarium solani [4] = test: Antifungal activity against Fusarium solani determined as diameter of inhibition zone at a concentration of 1 ug/disk; Not effective; assay type: functional, organism-based
Penicillium citrinum [5] = test: Antifungal activity against Penicillium citrium determined as diameter of inhibition zone at a concentration of 0.1 ug/disk; Not effective; assay type: functional, organism-based
Penicillium citrinum [6] = test: Antifungal activity against Penicillium citrium determined as diameter of inhibition zone at a concentration of 1 ug/disk; Not effective; assay type: functional, organism-based
Penicillium citrinum [7] = test: Antifungal activity against Penicillium citrium determined as diameter of inhibition zone at a concentration of 10 ug/disk; Not effective; assay type: functional, organism-based
Saccharomyces cerevisiae [8] = test: Antifungal activity against Saccharomyces cerevisiae determined as diameter of inhibition zone at a concentration of 0.1 ug/disk; Not effective; assay type: functional, organism-based
Aspergillus fumigatus [9] = test: Antifungal activity against Aspergillus fumigatus determined as diameter of inhibition zone at a concentration of 0.1 ug/disk; Slightly effective; assay type: functional, organism-based
Saccharomyces cerevisiae [10] = test: Antifungal activity against Saccharomyces cerevisiae determined as diameter of inhibition zone at a concentration of 1 ug/disk; Not effective; assay type: functional, organism-based
Aspergillus fumigatus [11] = test: Antifungal activity against Aspergillus fumigatus determined as diameter of inhibition zone at a concentration of 10 ug/disk; assay type: functional
Aspergillus fumigatus [12] = test: Antifungal activity against Aspergillus fumigatus determined as diameter of inhibition zone at a concentration of 1 ug/disk; Slightly effective; assay type: functional, organism-based
Candida albicans [13] = test: Antifungal activity against Candida albicans determined as diameter of inhibition zone at a concentration of 1 ug/disk; Slightly effective; assay type: functional, organism-based
Candida albicans [14] = test: Antifungal activity against Candida albicans determined as diameter of inhibition zone at a concentration of 10 ug/disk; assay type: functional
Fusarium solani [15] = test: Antifungal activity against Fusarium solani determined as diameter of inhibition zone at a concentration of 10 ug/disk; Not effective; assay type: functional, organism-based
Saccharomyces cerevisiae [16] = test: Antifungal activity against Saccharomyces cerevisiae determined as diameter of inhibition zone at a concentration of 1 ug/disk; Slightly effective; assay type: functional, organism-based
Saccharomyces cerevisiae [17] = test: Antifungal activity against Saccharomyces cerevisiae determined as diameter of inhibition zone at a concentration of 10 ug/disk; assay type: functional
Saccharomyces cerevisiae [18] = test: Antifungal activity against Saccharomyces cerevisiae determined as diameter of inhibition zone at a concentration of 0.1 ug/disk; Slightly effective; assay type: functional, organism-based
Aspergillus fumigatus [19] = test: Antifungal activity against Aspergillus fumigatus determined as diameter of inhibition zone at a concentration of 10 ug/disk (expt 2); assay type: functional, organism-based
Candida albicans [20] = test: Antifungal activity against Candida albicans determined as diameter of inhibition zone at a concentration of 10 ug/disk (expt 1); assay type: functional, organism-based
Penicillium citrinum [21] = test: Antifungal activity against Penicillium citrium determined as diameter of inhibition zone at a concentration of 10 ug/disk (expt 1); assay type: functional, organism-based
Penicillium citrinum [22] = test: Antifungal activity against Penicillium citrium determined as diameter of inhibition zone at a concentration of 10 ug/disk (expt 2); Not effective; assay type: functional, organism-based
Saccharomyces cerevisiae [23] = test: Antifungal activity against Saccharomyces cerevisiae determined as diameter of inhibition zone at a concentration of 10 ug/disk (expt 1); assay type: functional, organism-based
Saccharomyces cerevisiae [24] = test: Antifungal activity against Saccharomyces cerevisiae determined as diameter of inhibition zone at a concentration of 10 ug/disk (expt 2); assay type: functional, organism-based
Aspergillus fumigatus [25] = test: Antifungal activity against Aspergillus fumigatus determined as diameter of inhibition zone at a concentration of 10 ug/disk (expt 1); assay type: functional, organism-based
Candida albicans [26] = test: Antifungal activity against Candida albicans determined as diameter of inhibition zone at a concentration of 10 ug/disk (expt 2); assay type: functional, organism-based

Row | Compound | Diameter of inhibition zone (Candida albicans [1]) | Diameter of inhibition zone (Fusarium solani [3]) | Diameter of inhibition zone (Fusarium solani [4]) | Diameter of inhibition zone (Penicillium citrinum [5]) | Diameter of inhibition zone (Penicillium citrinum [6]) | Diameter of inhibition zone (Penicillium citrinum [7]) | Diameter of inhibition zone (Saccharomyces cerevisiae [8]) | Diameter of inhibition zone (Aspergillus fumigatus [9]) | other results
1 | C=CC(C)(C)OC(C)(C)[C@@H]1COc2ccc(/C=C/C(OC)=C(C)\C(=C/OC)C(=O)OC)cc2O1 | inactive | inactive | inactive | inactive | inactive | inactive | inactive | Slightly effective | Diameter of inhibition zone (Candida albicans [2]): inactive; Diameter of inhibition zone (Saccharomyces cerevisiae [10]): inactive
2 | C=CC(C)(C)OC(C)(C)[C@H]1COc2ccc(/C=C/C(OC)=C(C)\C(=C/OC)C(=O)OC)cc2O1 | inactive | inactive | inactive | inactive | inactive | inactive | inactive | Slightly effective | Diameter of inhibition zone (Aspergillus fumigatus [11]): 8 mm; Diameter of inhibition zone (Aspergillus fumigatus [12]): Slightly effective; Diameter of inhibition zone (Candida albicans [13]): Slightly effective; Diameter of inhibition zone (Candida albicans [14]): 8 mm; Diameter of inhibition zone (Fusarium solani [15]): inactive; Diameter of inhibition zone (Saccharomyces cerevisiae [16]): Slightly effective; Diameter of inhibition zone (Saccharomyces cerevisiae [17]): 8 mm
3 | C=CC(C)(C)O[C@H]1COc2ccc(/C=C/C(OC)=C(C)\C(=C\OC)C(=O)OC)cc2OC1(C)C | inactive | inactive |  | inactive | inactive |  |  | Slightly effective | Diameter of inhibition zone (Saccharomyces cerevisiae [18]): Slightly effective
4 | NYSTATIN |  |  |  |  |  |  |  |  | Diameter of inhibition zone (Aspergillus fumigatus [19]): 8 mm; Diameter of inhibition zone (Candida albicans [20]): 16 mm; Diameter of inhibition zone (Penicillium citrinum [21]): 10 mm; Diameter of inhibition zone (Penicillium citrinum [22]): inactive; Diameter of inhibition zone (Saccharomyces cerevisiae [23]): 17 mm; Diameter of inhibition zone (Saccharomyces cerevisiae [24]): 8 mm; Diameter of inhibition zone (Aspergillus fumigatus [25]): 12 mm; Diameter of inhibition zone (Candida albicans [26]): 10 mm
